# Assay results taken from patent US20260217682A1, “STILBENE COMPOUND AND PREPARATION METHOD THEREFOR AND USE THEREOF” (THE HONG KONG UNIVERSITY OF SCIENCE AND TECHNOLOGY, priority 2022, published 2026).
# Test system: human HaCaT cells
# Experiment: Cytotoxicity assay (MTT colorimetric assay)
# Assay type: cell-based
# Conditions: 0.3-100 μM, 48 hours of treatment
# Protocol: HaCaT cells were inoculated at a density of 5.0×10^3 cells/mL in a 96-well culture plate, with 100 μL per well. […] After 48 hours of treatment, 10 μL of MTT solution was added to each well, and the cells were incubated at 37° C. for an additional 4 hours. The culture was then terminated, the supernatant was discarded, and 150 μL of DMSO was added to each well. The plate was shaken for 10 minutes for full dissolution. The absorbance (OD) of each well was measured at 490 nm using an ELISA reader. The wells without drug treatment served as controls, and cell viability was calculated using the formula: Cell viability
smiles,measurement,value
Oc1ccc(C=Cc2cc(O)cc(O)c2)cc1 [resveratrol],cytotoxicity (cell viability),neither compound RE-1 nor resveratrol exhibited significant cytotoxicity
